The values that follow come from ChEMBL document CHEMBL5316365, “Anti-Neuroinflammatory Meroterpenoids from a Chinese Collection of the Brown Alga Sargassum siliquastrum” (J Nat Prod, 2023).

Activity calls are given as the source filed them. The rule behind the calls is not given here.

The test system of series [1] is BV-2. Briefly: Antineuroinflammatory activity in LPS-induced mouse BV-2 cells assessed as decrease in TNFalpha mRNA level preincubated for 4 hrs followed by LPS stimulation and measured after 6 hrs by RT-PCR method. It is filed as functional, cell-based. The settings on record: dose 2.5-10 µM, time 10.0 hrs.
Series [2] concerns BV-2. The series is described as follows: Antineuroinflammatory activity in LPS-induced mouse BV-2 cells assessed as downregulation of NF-kappaB p65 protein expression in nucleus at 5 to 10 uM pretreated for 4 hrs followed by LPS stimulation and measured after 24 hrs by Western blot analysis. The format is functional, cell-based. The settings on record: dose 5-10 µM, time 28.0 hrs. (In general: Immunoblotting shows a protein as a band on a membrane.)

For series [3], the system named is BV-2. The series is described as follows: Antineuroinflammatory activity in LPS-induced mouse BV-2 cells assessed as decrease in IL-1beta mRNA level preincubated for 4 hrs followed by LPS stimulation and measured after 6 hrs by RT-PCR method. It is filed as functional, cell-based. The settings on record: dose 2.5-10 µM, time 10.0 hrs.
Series [4] relates to BV-2. The series is described as follows: Antineuroinflammatory activity in LPS-induced mouse BV-2 cells assessed as downregulation of IKK protein level in nucleus at 5 to 10 uM pretreated for 4 hrs followed by LPS stimulation and measured after 24 hrs by Western blot analysis. The format is functional, cell-based. The settings on record: dose 5-10 µM, time 28.0 hrs.
Series [5] deals with BV-2. Briefly: Antineuroinflammatory activity in LPS-induced mouse BV-2 cells assessed as decrease in IL-1beta protein level pretreated for 4 hrs followed by LPS stimulation for 24 hrs by ELISA. The format is functional, cell-based. The settings on record: dose 2.5-10 µM, time 28.0 hrs.
The test system of series [6] is BV-2. Briefly: Effect on NF-kbeta p65 total protein level in mouse BV-2 cells at 5 to 10 uM pretreated for 4 hrs followed by LPS stimulation and measured after 24 hrs by Western blot analysis. The settings on record: dose 5-10 µM, time 28.0 hrs. The format is functional, cell-based.
Series [7] concerns BV-2. Briefly: Antineuroinflammatory activity in LPS-induced mouse BV-2 cells assessed as decrease in TNFalpha protein level pretreated for 4 hrs followed by LPS stimulation for 24 hrs by ELISA. The settings on record: dose 2.5-10 µM, time 28.0 hrs. The format is functional, cell-based. A general note: In an ELISA, binding on a coated surface is turned into a signal by an enzyme label.

Series [8] deals with BV-2. The series is described as follows: Anti-neuroinflammatory activity in LPS-induced mouse BV-2 cells assessed as inhibition of NO production pretreated for 4 hrs followed by LPS stimulation for 24 hrs by griess reagent based assay. It is filed as functional, cell-based. A general note: The Griess reaction detects nitrite, a stable product of nitric oxide.
Series [9] concerns the target Transcription factor p65 (Mus musculus) (UniProt Q04207). The series is described as follows: Inhibition of NF-kappaB p65 translocation from cytosol to nucleus in LPS-induced mouse BV-2 cells at 5 to 10 uM pretreated for 4 hrs followed by LPS stimulation and measured after 24 hrs by Western blot analysis. It is filed as cell-based. The settings on record: dose 5-10 µM, time 28.0 hrs.

The test system of series [10] is BV-2. Briefly: Antineuroinflammatory activity in LPS-induced mouse BV-2 cells assessed as decrease in IL-6 protein level pretreated for 4 hrs followed by LPS stimulation for 24 hrs by ELISA. It is filed as functional, cell-based. The settings on record: dose 2.5-10 µM, time 28.0 hrs.
Series [11] has as its system BV-2. The series is described as follows: Antineuroinflammatory activity in LPS-induced mouse BV-2 cells assessed as decrease in IL-6 mRNA level preincubated for 4 hrs followed by LPS stimulation and measured after 6 hrs by RT-PCR method. The format is functional, cell-based. The settings on record: dose 2.5-10 µM, time 10.0 hrs.
Series [12] can be described thus: Cytotoxicity against mouse BV-2 cells incubated for 24 hrs by MTT assay. It is filed as toxicity, cell-based.
For series [13], the system named is BV-2. Briefly: Antineuroinflammatory activity in LPS-induced mouse BV-2 cells assessed as upregulation of IkappaB protein level in nucleus at 5 to 10 uM pretreated for 4 hrs followed by LPS stimulation and measured after 24 hrs by Western blot analysis. The format is functional, cell-based. The settings on record: dose 5-10 µM, time 28.0 hrs.
Series [14] deals with Transcription factor p65 (Mus musculus) (UniProt Q04207). Briefly: Inhibition of NF-kappaB p65 translocation from cytosol to nucleus in LPS-induced mouse BV-2 cells at 2.5 to 10 uM pretreated for 4 hrs followed by LPS stimulation and measured after 24 hrs by immunofluorescence analysis. The settings on record: dose 2.5-10 µM, time 28.0 hrs. It is filed as cell-based.
Chain of Transcription factor p65 (Mus musculus) (Q04207 whole entry): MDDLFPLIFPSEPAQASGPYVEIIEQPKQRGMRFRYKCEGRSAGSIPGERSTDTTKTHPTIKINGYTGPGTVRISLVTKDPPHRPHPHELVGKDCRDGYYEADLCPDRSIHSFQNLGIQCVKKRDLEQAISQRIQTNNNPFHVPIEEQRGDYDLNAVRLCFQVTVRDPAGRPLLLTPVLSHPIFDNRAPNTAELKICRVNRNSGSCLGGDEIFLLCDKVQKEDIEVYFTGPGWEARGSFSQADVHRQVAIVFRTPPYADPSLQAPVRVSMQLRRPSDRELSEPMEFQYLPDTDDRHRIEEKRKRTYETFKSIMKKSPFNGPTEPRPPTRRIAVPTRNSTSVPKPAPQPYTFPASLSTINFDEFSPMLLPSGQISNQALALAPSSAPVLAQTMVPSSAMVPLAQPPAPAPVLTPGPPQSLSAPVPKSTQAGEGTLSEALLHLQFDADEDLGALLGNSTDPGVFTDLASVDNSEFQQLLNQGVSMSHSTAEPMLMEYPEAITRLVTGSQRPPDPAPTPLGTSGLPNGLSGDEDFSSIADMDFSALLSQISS

In the case of `CC(=O)/C=C/C/C(C)=C/CC[C@]1(C)CCc2cc(O)cc(C)c2O1`, the Activity result in series [1], in [3], in series [5], in series [7], in [10] and in series [11] was “Dose-Dependent Effect” each time. Moreover, the outcome in series [2], in series [4] and in series [13] was Active. In addition, the result in series [6] was inactive. The IC50 in [8] stood at 2 µM. Besides, the inhibition result in series [9] and in [14] was “Active” throughout. Further, in series [12], the CC50 at 24 h was above 50 µM.
On to `C/C(=C\CC[C@]1(C)CCc2cc(O)cc(C)c2O1)CC/C=C(\C)C(=O)/C=C/C(C)(C)OO`, for which the IC50 in [8] was determined as 29 µM. In series [12], the CC50 at 24 h is above 50 µM.
Taken in the same sequence, the figures for `CC(C)=C[C@H](O)[C@@H](O)/C(C)=C/CC/C(C)=C/CC[C@]1(C)CCc2cc(O)c(C)c(C)c2O1` were 25 µM and above 50 µM.
As for `CC(C)=CC(=O)C(=O)/C(C)=C/CC/C(C)=C/CC[C@]1(C)CCc2cc(O)cc(C)c2O1`, the IC50 in [8] was above 30 µM. For the same compound, in series [12], the CC50 at 24 h was above 50 µM.
With `CC(C)=CC(O)C(=O)/C(C)=C/[C@H](O)C/C(C)=C/CC[C@]1(C)CCc2cc(O)cc(C)c2O1` (some centres not stated), the IC50 in [8] is 6 µM. For the same compound, the CC50 at 24 h in series [12] was above 50 µM.
The matching figures for `CC(C)=CC(=O)C/C(C)=C/CC/C(C)=C/CC[C@]1(C)CCc2cc(O)cc(C)c2O1`: above 30 µM and above 50 µM.
Taken in the same sequence, the figures for `C/C(=C\CC[C@]1(C)CCc2cc(O)cc(C)c2O1)CC/C=C(\C)C(=O)/C=C/C(C)(C)O` were 13 µM and above 50 µM.
Taken in the same sequence, the figures for `C/C(=C\CC[C@]1(C)CCc2cc(O)cc(C)c2O1)CC/C=C(\C)C(=O)C(=O)CC(C)C` were 8 µM and above 50 µM.
Turning to `CC(C)=CC(CO)/C(=C/CC/C(C)=C/CC[C@]1(C)CCc2cc(O)cc(C)c2O1)CO` (some centres not stated), the IC50 in [8] came to 5 µM. For the same compound, in series [12], the 50% cytotoxic concentration (CC50) at 24 h is above 50 µM.
The matching figures for `C=C(CC/C=C(\C)[C@H](O)[C@@H](O)C=C(C)C)C(=O)CC[C@]1(C)CCc2cc(O)cc(C)c2O1`: 19 µM and above 50 µM.

In general, IC50 refers to the concentration needed to halve the response being measured. Usually CC50 stands for the concentration at which the toxic effect on the cells reaches its halfway point. Higher therefore signals better tolerance by the cells.
